Drawing on ChEMBL document CHEMBL1133344, “SAR studies of 2-o-substituted-benzoyl- and 2-alkanoyl-cyclohexane-1,3-diones as inhibitors of 4-hydroxyphenylpyruvate dioxygenase” (Bioorg Med Chem Lett, 2000), this text covers IC50 for 14 compounds.

T1 sequence (Q02110 whole entry): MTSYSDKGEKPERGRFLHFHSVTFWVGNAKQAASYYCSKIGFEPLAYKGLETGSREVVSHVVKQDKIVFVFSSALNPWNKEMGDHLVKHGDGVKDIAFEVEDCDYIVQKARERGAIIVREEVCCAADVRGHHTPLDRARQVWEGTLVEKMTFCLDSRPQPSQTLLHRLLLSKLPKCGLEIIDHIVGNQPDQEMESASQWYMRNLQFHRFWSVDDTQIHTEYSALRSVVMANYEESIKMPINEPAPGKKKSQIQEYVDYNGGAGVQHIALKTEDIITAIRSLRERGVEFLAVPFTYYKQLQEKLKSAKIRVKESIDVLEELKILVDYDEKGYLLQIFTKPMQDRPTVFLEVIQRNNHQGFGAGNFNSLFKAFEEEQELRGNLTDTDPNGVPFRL

The first assay addresses T1, 4-hydroxyphenylpyruvate dioxygenase (Sus scrofa, UniProt Q02110). The assay can be described thus: In vitro inhibition of 4-hydroxyphenylpyruvate dioxygenase obtained from purified pig liver by enol-borate method.
As usually defined, the IC50 is the concentration that inhibits the measured activity by half. The low end stands for greater potency in that assay, the high end for weaker potency in that assay. Compound `O=C1CCCC(=O)C1C(=O)c1ccccc1` came in with a half-inhibitory concentration (IC50) of 11.2 µM.

The next assay has as its target T1, 4-hydroxyphenylpyruvate dioxygenase. The assay can be described thus: Inhibition of 4-hydroxyphenylpyruvate dioxygenase of purified pig liver by enol-borate method.
`O=C1CCCC(=O)C1C(=O)c1ccccc1I` gave an IC50 of 0.76 µM.
`O=C1CCCC(=O)C1C(=O)C1CC1` had a 50% inhibitory concentration (IC50) of 6 µM.
`O=C1CCCC(=O)C1C(=O)c1ccccc1Cl`: the concentration for half-maximal inhibition (IC50) was determined as 0.5 µM.
The same measure, in the same setting: then `CCC(=O)C1C(=O)CCCC1=O`, with 17.8 µM; and `O=C1CCCC(=O)C1C(=O)c1ccccc1C(F)(F)F`, with 0.25 µM; and `CC(C)C(=O)C1C(=O)CCCC1=O`, with 93.3 µM.
`COc1ccccc1C(=O)C1C(=O)CCCC1=O`: the concentration for half-maximal inhibition (IC50) is 11.7 µM.
`CC(=O)C1C(=O)CCCC1=O` returned a half-maximal inhibitory concentration (IC50) of 11.2 µM.
The same measure, in the same setting: then `O=C1CCCC(=O)C1C(=O)c1ccc(C(F)(F)F)cc1[N+](=O)[O-]` [NITISINONE], with 0.04 µM; and `O=C1CCCC(=O)C1C(=O)c1ccccc1[N+](=O)[O-]`, with 0.16 µM.
The same measure, in the same setting: the result for `Cc1ccccc1C(=O)C1C(=O)CCCC1=O` reads 3.75 µM; that for `O=C1CCCC(=O)C1C(=O)C1CCCCC1`, 365 µM; that for `O=C1CCCC(=O)C1C(=O)c1ccccc1Br`, 0.56 µM.
